Measured values as given in PubChem BioAssay (NCI).
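Cells were grown in 96-well plates and exposed to each compound for 48 hours at five concentrations; endpoints were interpolated linearly between bracketing concentrations, or set to the highest concentration if not reached. Abbreviation: GI50, concentration required for 50% inhibition of growth. The concentration for full growth arrest is given as TGI.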

Assays:
Experiment in all cases: NCI anticancer screen, dose series, 48 h
MCF7 breast = system: MCF7 breast
EKVX NSCLC = system: EKVX NSCLC
CCRF-CEM leukemia = system: CCRF-CEM leukemia
SN12C renal = system: SN12C renal
HOP-62 NSCLC = system: HOP-62 NSCLC
SK-MEL-2 melanoma = system: SK-MEL-2 melanoma
OVCAR-8 ovarian = system: OVCAR-8 ovarian
SW-620 colon = system: SW-620 colon
SNB-19 CNS = system: SNB-19 CNS
LOX IMVI melanoma = system: LOX IMVI melanoma
U251 CNS = system: U251 CNS
SF-295 CNS = system: SF-295 CNS
M14 melanoma = system: M14 melanoma
HCT-116 colon = system: HCT-116 colon
UACC-257 melanoma = system: UACC-257 melanoma
HT29 colon = system: HT29 colon
COLO 205 colon = system: COLO 205 colon
HOP-92 NSCLC = system: HOP-92 NSCLC
NCI-H23 lung = system: NCI-H23 lung
OVCAR-3 ovarian = system: OVCAR-3 ovarian
HCC-2998 colon = system: HCC-2998 colon
ACHN renal = system: ACHN renal
A498 renal = system: A498 renal
UACC-62 melanoma = system: UACC-62 melanoma
HCT-15 colon = system: HCT-15 colon
MDA-MB-435 = system: MDA-MB-435
NCI/ADR-RES ovarian = system: NCI/ADR-RES ovarian
SF-268 CNS = system: SF-268 CNS

`CC12O[C@H](C[C@@H](OC(=O)CCC(=O)O)[C@H]1O)n1c3ccccc3c3c4c(c5c6ccccc6n2c5c31)C(=O)NC4=O` showed a GI50 (MCF7 breast) of 1.25 µM, a TGI (MCF7 breast) of 10.9 µM and a GI50 (EKVX NSCLC) of 7.28 µM. For the same molecule, the TGI (EKVX NSCLC) was over 50 µM, the GI50 (CCRF-CEM leukemia) was 1.57 µM and the TGI (CCRF-CEM leukemia) was 13.4 µM. For the same molecule, the GI50 (SN12C renal) was 2.47 µM, the TGI (SN12C renal) was 24.5 µM and the GI50 (HOP-62 NSCLC) was 0.834 µM. The TGI (HOP-62 NSCLC) was 10.7 µM, the GI50 (SK-MEL-2 melanoma) was 0.464 µM and the TGI (SK-MEL-2 melanoma) was 16.5 µM. For the same molecule, the GI50 (OVCAR-8 ovarian) was 2.65 µM, the TGI (OVCAR-8 ovarian) was over 50 µM and the GI50 (SW-620 colon) was 1.43 µM. The TGI (SW-620 colon) was 13.4 µM, the GI50 (SNB-19 CNS) was 3.62 µM and the TGI (SNB-19 CNS) was 38.8 µM. It also gave a GI50 (LOX IMVI melanoma) of 1.47 µM, a TGI (LOX IMVI melanoma) of 7.88 µM and a GI50 (U251 CNS) of 5.71 µM. It also gave a TGI (U251 CNS) of 17.1 µM, a GI50 (SF-295 CNS) of 1.5 µM and a TGI (SF-295 CNS) of 7.6 µM. For the same molecule, the GI50 (M14 melanoma) was 0.239 µM, the TGI (M14 melanoma) was 6.54 µM and the GI50 (HCT-116 colon) was 1.5 µM. For the same molecule, the TGI (HCT-116 colon) was 9.8 µM, the GI50 (UACC-257 melanoma) was 1.52 µM and the TGI (UACC-257 melanoma) was 10.6 µM. It also gave a GI50 (HT29 colon) of 1.45 µM, a TGI (HT29 colon) of 17.7 µM and a GI50 (COLO 205 colon) of 0.902 µM. The TGI (COLO 205 colon) was 5.26 µM, the GI50 (HOP-92 NSCLC) was 0.738 µM and the TGI (HOP-92 NSCLC) was 4.77 µM. It also gave a GI50 (NCI-H23 lung) of 1.13 µM, a TGI (NCI-H23 lung) of 20.3 µM and a GI50 (OVCAR-3 ovarian) of 1.32 µM. The TGI (OVCAR-3 ovarian) was 14 µM, the GI50 (HCC-2998 colon) was 5.64 µM and the TGI (HCC-2998 colon) was 15.1 µM. It also gave a GI50 (ACHN renal) of 0.727 µM, a TGI (ACHN renal) of over 50 µM and a GI50 (A498 renal) of 0.168 µM. For the same molecule, the TGI (A498 renal) was 1.15 µM, the GI50 (UACC-62 melanoma) was 0.585 µM and the TGI (UACC-62 melanoma) was 7.2 µM. It also gave a GI50 (HCT-15 colon) of 0.767 µM, a TGI (HCT-15 colon) of 16.4 µM and a GI50 (MDA-MB-435) of 0.708 µM. For the same molecule, the TGI (MDA-MB-435) was 7.08 µM, the GI50 (NCI/ADR-RES ovarian) was 6.24 µM and the TGI (NCI/ADR-RES ovarian) was 40.8 µM. It also gave a GI50 (SF-268 CNS) of 3.21 µM and a TGI (SF-268 CNS) of 23.9 µM.
